Experimental data: patent US20170073445A1, “PHOTOPOLYMERIZABLE COMPOSITION, PHOTOPOLYMERIZABLE INK, COMPOSITION CONTAINER, IMAGE OR CURED PRODUCT FORMING METHOD, IMAGE OR CURED PRODUCT FORMING DEVICE, AND IMAGE OF CURED PRODUCT” (priority 2014, published 2017)

Columns and labels:
[1] = in vivo; cited from earlier work
female mice = experiment: Skin sensitization test, local lymph node assay (LLNA), SI value; assay type: in vivo; settings: test substance 50.0 w/v % in acetone:olive oil 4:1, applied to both auricles once a day for three days
Excerpt: (1) A compound having a Stimulation Index (SI value) of less than 3, where the Stimulation Index indicates the level of sensitization as measured by a skin sensitization test based on the LLNA (Local Lymph Node Assay).
Regarding the above (1), the compound having a SI value of less than 3 is considered as being negative for skin sensitization as described in literatures, for example, “Functional Material” (Kino Zairyou) September, 2005, Vol. 25, No. 9, p. 55. The lower Si value means lower skin sensitization. In the present invention, therefore, a photopolymerizable monomer having lower SI value is preferably used. The SI value is preferably less than 3, more preferably 2 or less, and even more preferably 1.6 or less.
According to the skin sensitization test of local lymph node assay (LLNA), the SI value was measured in the following manner. […]
Based on the body weights measured 2 days before the initiation of sensitization, they were categorized into 2 groups (4 mice/group) by the body weight stratified random sampling method so that the body weight of each individual was within plus or minus 20%. […]
About 24 hours after the administration of BrdU, the used animals were allowed to undergo euthanasia, and their auricular lymph nodes were sampled. […] Also, the average of the weights of the auricular lymph nodes and the standard error thereof were calculated for each group. […]

[2] = Viscosity by cone-plate rotor viscometer (25° C. or 60° C.); assay type: physicochemical; settings: monomer per se
Method: Note that, a viscosity of the low viscous monofunctional monomer per se is preferably 3 mPa·s or less at 25° C., more preferably about 1 mPa·s or less at 25° C. The viscosity can be measured by means of a cone-plate rotor viscometer, VISCOMETER TV-22, manufactured by Toki Sangyo Co., Ltd., using a corn rotor (1° 34′×R24) at the rotational speed of 50 rpm, with setting the temperature of constant-temperature circulating water to 25° C.
The viscosity is measured by means of a cone-plate rotor viscometer, VISCOMETER TV-22, manufactured by Toki Sangyo Co., Ltd., using a corn rotor (1° 34′×R24) at the rotational speed of 50 rpm, with setting the temperature of constant-temperature circulating water to 25° C. or 60° C. As for the adjustment of the temperature of the circulating water, VISCOMATE VM-150III is used. […]
(A): t-butylmethacrylate, “Acryester TB” manufactured by MITSUBISHI RAYON CO., LTD. (negative), evaluated with the literature (test method: maximization method, viscosity at 25° C.: 0.9 mPa·s). The viscosity was measured by means of a cone-plate rotor viscometer, VISCOMETER TV-22, manufactured by Toki Sangyo Co., Ltd., using a corn rotor (1° 34′×R24) at the rotational speed of 50 rpm, with setting the temperature of constant-temperature circulating water to 25° C.

Q: Which “Skin sensitization, evaluated with MSDS” value [1] does the source give for `O=C(c1ccccc1)C1(O)CCCCC1` [1-hydroxy-cyclohexylphenylketone] here?
A: Its value is “no”.

Q: Which “SI value (Stimulation Index) in the LLNA test” value (female mice) does the source give for `C=C(C)C(=O)OCC(CO)OC(=O)C(=C)C` (centres unmarked) [glycerol dimethacrylate] here?
A: The value was 1.2.

Q: Which “viscosity at 25° C.” value [2] does the source give for `C=C(C)C(=O)OCCCCC` [n-pentyl methacrylate] here?
A: The value was 1 mPa·s.

Q: For `C=C(C)C(=O)OC(C)(C)C` [t-butylmethacrylate], which “viscosity at 25° C.” value [2] is on record?
A: The value was 0.9 mPa·s.

Q: With “tricyclodecane dimethanol dimethacrylate” as the compound, how does the “SI value (Stimulation Index) in the LLNA test” value (female mice) read?
A: Its value is 1.3.
